# According to US6346539B1, “Treatment of skin conditions” (BTG International Limited, priority 1998, dated 2002):
# Like-named read-outs stand apart in the source and are kept apart here.
# What was measured:
# mouse melan-a cells = experiment: Melanocyte proliferant activity of piperine derivatives, SRB assay, 4 days, 10% FBS; type: cell-based; details: for More active than piperine at higher conc. (μM)? / Active at 10 μM? / Active at higher conc. (μM)?: overall summary; for More active than piperine at higher conc. (μM)?: concentrations at which more active than piperine; for Relative activity to piperine: (A-100) compound/(A-100) piperine; for Active at higher conc. (μM)?: concentrations at which active
# Method: The plates were incubated at 37° C. in a 10% CO2, 90% air humidified atmosphere for the stated length of time. At the end of the incubation, an SRB assay was performed. Briefly, cells attached to the bottom of the plate were fixed by addition of cold trichloroacetic acid (TCA, 4° C., Aldrich, Dorset, UK) on the top of the growth medium (final TCA 20% w/v). The plate was placed at 4° C. for 1 hour before being gently washed five times with tap water. It was allowed to dry in air, or aided with a hair dryer to speed up the drying process, then 50 μl of 4% w/v SRB dissolved in 1% acetic acid in water was added to each well for 30 min. At the end of the staining period, unbound SRB was removed by washing 4 times with 1% acetic acid. The plate was air dried again, and 150 μl of 10 mM aqueous Tris base (Sigma-Aldrich Co. Ltd, Irvine, UK) was added into each well to solubilize the cell-bound dye.
# Various piperine derivatives of formula (1) were synthesised and tested for melanocyte (mouse melan-a) proliferant activity in-vitro. Cells we re incubated with the test compound for 4 days, as previously for the mouse cells but with 10% FBS, after which the sulphorhodamine-B (SRB) assay was performed to determnine cell number SRB uptake was measured as optical density at 550 nm. The control assay was carried out on cells incubated without test compound. There were 2 or 3 series of experiments, each of which consisted of six replcate experiments.
# Percentage cell growth was obtained with a given compound calculated as (optical density in the presence of the compound/control optical density)×100.
# Melan-a cell proliferant activity for tested compounds was compared with that obtained with piperine. […] All figures are given with Standard Error of the Mean.
# melan-a cells = experiment: Dendricity of melan-a cells by observation under microscope; type: cell-based, mouse; parameters: key: +++: highly dendritic; ++: moderately dendritic; +: weakly dendritic; −: no effect
# From the text: Effect on dendricity of melan-a cells by the test compounds was by observation under microscope. Dendricity is relevant to vitiligo since normal skin melanocytes have dendrites, but in vitiligo the melanocytes seem to lose these before they disappear from the patches.
# [1] = Mus musculus, Melan-a, 96 h, read-out: growth of melan-a cells as % of control, dose experiment
# [2] = Mus musculus, Melan-a, 96 h, 10 μM, read-out: growth of melan-a cells as % of control, dose experiment
# [3] = single concentration (10 μM), melan-a
# [4] = Mus musculus, Melan-a, 96 h, single concentration (10 μM), melan-a, ± SEM, read-out: Percentage cell growth (Repeated experiments)
Structure (SMILES),activity at 1 µM (mouse melan-a cells; [1]) [%],activity at 10 µM (mouse melan-a cells; [2]) [%],"activity at 25 µM (mouse melan-a cells; Mus musculus, Melan-a, 96 h, 25 μM, read-out: growth of melan-a cells as % of control, dose experiment) [%]",activity at 50 µM (mouse melan-a cells; [1]) [%],More active than piperine at higher conc. (μM)? (mouse melan-a cells),Active at 10 μM? (mouse melan-a cells; melan-a),Stimulant activity (mouse melan-a cells; [3]),"Dendricity (melan-a cells; Table 7, 10 μM)",activity at 10 µM (mouse melan-a cells; [4]) [%],"Dendricity (melan-a cells; Table 8, 10 μM)",Relative activity to piperine (mouse melan-a cells; 10 μM),activity at 100 µM (mouse melan-a cells; [1]) [%],"Dentricity, dose experiment (melan-a cells; 1 μM)","Dentricity, dose experiment (melan-a cells; 10 μM)","Dentricity, dose experiment (melan-a cells; 50 μM)","Dentricity, dose experiment (melan-a cells; 100 μM)",Active at higher conc. (μM)? (mouse melan-a cells),"Dendricity (melan-a cells; Table 9, 10 μM)"
"CCCCCCNC(=O)/C=C/C=C/c1ccc2c(c1)OCO2 [RV-A05, 5-E,E-piperinoylhexylamine]",155 ± 9,188 ± 13,178 ± 18,178 ± 8,No,Yes,Positive,+++,,,,,,,,,,
"O=C(/C=C/c1ccc2c(c1)OCO2)N1CCCC1 [RV-B02, 1-(3-trans-benzo-1,3-dioxol-5-ylacryloyl)pyrrolidine]",,,,,,No^b,Non- significant,,140 ± 14,+,,,,,,,,
"O=C(/C=C/C=C/c1ccc2c(c1)OCO2)NC1CCCCC1 [RV-A10, 5-E,E-piperinoyl cyclohexylamine]",301 ± 20,308 ± 29,,155 ± 22,,Yes,Positive,+++,308 ± 29,,1.02,100 ± 13,+++,+++,+,+,,
"CC(C)NC(=O)/C=C/C=C/c1ccc2c(c1)OCO2 [RV-A09, 5-E,E-piperinoylisopropylamine]",187 ± 15,224 ± 19,,85 ± 5,No,Yes,Positive,+++,224 ± 19,,0.76,42 ± 6,+++,+++,+,+,No,
"COC(=O)/C=C/c1ccc2c(c1)OCO2 [RV-BB1, 3-trans-benzo-1,3-dioxol-5-ylacrylic acid methyl ester]",,,,,,No^b,Non- significant,,,,,,,,,,,
"CCCOC(=O)/C=C/C=C/c1ccc2c(c1)OCO2 [RV-AB5, 5-E,E-piperinic Acid Propyl Ester]",120 ± 21,151 ± 19,,163 ± 8,,Yes,Positive,,166 ± 35,,0.95,123 ± 8,−,++,++,+,,++
"CCOC(=O)/C=C/C=C/c1ccc2c(c1)OCO2 [RV-AB2, 5-E,E-piperinic Acid Ethyl Ester]",,,,,,No^c,Positive,,29 ± 9,,,,,,,,,Toxic
"CCCCNC(=O)/C=C/C=C/c1ccc2c(c1)OCO2 [RV-A11, 5-E,E-piperinoylbutylamine]",189 ± 6,264 ± 21,,158 ± 20,,Yes,Positive,+++,264 ± 21,,0.66,84 ± 6,+++,+++,++,+,,
"CCNC(=O)/C=C/C=C/c1ccc2c(c1)OCO2 [RV-A08, 5-E,E-piperinoylethylamine]",139 ± 27,200 ± 14,,81 ± 12,No,Yes,Positive,+++,200 ± 14,,0.73,62 ± 13,++,+++,+,+,No,
